Several values for one entry are separate records, joined by “and”; a condition that tells them apart may be missing. Identical values can stand only once.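 Five compound concentrations were applied to cells in 96-well plates for 48 hours; endpoints were derived by simple linear interpolation of the resulting dose-response curve. At the GI50, growth is halved. At the TGI there is no net growth.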 A value given as a limit tells only on which side of the number the result lay.

The values below come from PubChem BioAssay (NCI).

Test systems include SF-268 CNS; HT29 colon; KM12 colon; OVCAR-4 ovarian; SF-539 CNS; NCI-H23 lung; ACHN renal; HCC-2998 colon; BT-549 breast.
Common to all, as to test: NCI tumour cell line growth inhibition, 48 h

On to `COc1ccc2c(c1)CCCC1C3=NCCC3(C)CSC21` (configuration not stated), for which the TGI in the experiment with SF-268 CNS, in the experiment on HT29 colon, in the experiment on KM12 colon, in the experiment on OVCAR-4 ovarian, in the experiment on SF-539 CNS and in the experiment on NCI-H23 lung was greater than 100 µM each time.

On to `COc1ccccc1NC(=O)CC(=O)NNCC(=O)Nc1nnc(-c2ccccc2)o1`, for which the TGI with SF-268 CNS, with HT29 colon, with KM12 colon, in the experiment with OVCAR-4 ovarian, in the experiment with SF-539 CNS and in the experiment on NCI-H23 lung was greater than 100 µM each time. Also, the TGI in the experiment on ACHN renal and in the experiment on HCC-2998 colon was greater than 100 µM in each case.

On to `COC(=O)n1c(CBr)c(Br)c2ccccc21`, for which the TGI with SF-268 CNS was 75.8 µM; with HT29 colon it was greater than 100 µM; in the experiment on KM12 colon, greater than 100 µM; with OVCAR-4 ovarian, 66.2 µM; in the experiment on SF-539 CNS it was greater than 100 µM; in the experiment with NCI-H23 lung, 71 µM. Besides, the values for the TGI with ACHN renal and in the experiment with HCC-2998 colon were 47.9 µM and greater than 100 µM, respectively.

Turning to `CC1=CC2CC(C)C1(C)CCc1ccoc12` (configuration not stated), the TGI with SF-268 CNS, in the experiment on HT29 colon, in the experiment with KM12 colon, in the experiment with OVCAR-4 ovarian, with SF-539 CNS and in the experiment with NCI-H23 lung was greater than 100 µM each time. The TGI in the experiment on ACHN renal and in the experiment with HCC-2998 colon was greater than 100 µM each time.

With `CC(=O)O[C@H]1CC[C@@]2(C)C(=CC[C@@H]3C2CC[C@]2(C)Nc4[nH]ncc4CC32)C1` (some centres not stated), the TGI with HT29 colon is 30.6 µM; with KM12 colon, 31.1 µM; in the experiment on OVCAR-4 ovarian, 37.2 µM; in the experiment on SF-539 CNS, 40.4 µM; in the experiment on NCI-H23 lung, greater than 100 µM; with ACHN renal, greater than 100 µM. The compound also returned a TGI in the experiment with HCC-2998 colon greater than 100 µM.

Regarding `COc1ccc(C(O)/C(=C/n2ccnc2)c2ccccc2)cc1OC` (configuration not stated), the TGI with SF-268 CNS, in the experiment on HT29 colon, in the experiment on KM12 colon, in the experiment with OVCAR-4 ovarian, in the experiment on SF-539 CNS and in the experiment with NCI-H23 lung was greater than 100 µM each time. The TGI in the experiment on ACHN renal and with HCC-2998 colon was greater than 100 µM in each case.

In the case of `CCCCCCCCCCCCCCCCn1cc[n+](Cc2ccccc2)c1C`, the GI50 in the experiment with SF-268 CNS was 0.548 µM; in the experiment with HT29 colon, 0.297 µM; in the experiment on KM12 colon, 1.36 µM and 0.176 µM; in the experiment with OVCAR-4 ovarian, 0.451 µM; with SF-539 CNS, 1.67 µM; in the experiment on NCI-H23 lung, 0.361 µM. In addition, the GI50 with ACHN renal is 1.89 µM; in the experiment with HCC-2998 colon it was 0.413 µM. Also, the TGI was 1.77 µM in the experiment with SF-268 CNS; 1.08 µM with HT29 colon; 2.87 µM and 0.407 µM in the experiment with KM12 colon; 4.55 µM in the experiment on OVCAR-4 ovarian; 4.36 µM in the experiment on SF-539 CNS; 1.8 µM with NCI-H23 lung. The TGI in the experiment with ACHN renal turned out to be 7 µM; in the experiment on HCC-2998 colon, 1.64 µM.

On to `O=C(O)CCCNS(=O)(=O)c1ccc2ccccc2c1`, for which the TGI in the experiment with SF-268 CNS, with HT29 colon, with KM12 colon, in the experiment with OVCAR-4 ovarian, in the experiment with SF-539 CNS and in the experiment with NCI-H23 lung was greater than 100 µM throughout. Besides, the TGI in the experiment with ACHN renal and with HCC-2998 colon was greater than 100 µM throughout.

`CCC[CH2][Sn]1([CH2]CCC)[O]C(=O)CN=Cc2ccccc2[O]1`: the GI50 was 0.286 µM in the experiment on SF-268 CNS; 1.08 µM in the experiment with HT29 colon; 0.695 µM in the experiment on KM12 colon; 0.881 µM in the experiment with OVCAR-4 ovarian; 1.3 µM in the experiment on SF-539 CNS; 0.136 µM in the experiment on NCI-H23 lung. In addition, the GI50 in the experiment with ACHN renal is 0.323 µM; with HCC-2998 colon it was 0.525 µM. In addition, the TGI in the experiment on SF-268 CNS is 0.859 µM; with HT29 colon, 2.34 µM; with KM12 colon, 2.18 µM; in the experiment on OVCAR-4 ovarian it was 2.32 µM; with SF-539 CNS, greater than 100 µM; in the experiment with NCI-H23 lung, 0.333 µM. Also, the TGI is 1.1 µM with ACHN renal and 1.81 µM in the experiment on HCC-2998 colon.

As for `Cc1c(O)c(=O)ccn1CCO`, the TGI in the experiment with SF-268 CNS, in the experiment with HT29 colon, with KM12 colon, in the experiment with OVCAR-4 ovarian and in the experiment on ACHN renal was greater than 100 µM throughout.

On to `COc1cc2c(c(OC)c1OC)-c1ccc(SC)c(=O)cc1C(CC(=O)Oc1cccc(C#N)c1)C2` (configuration not stated), for which the TGI is greater than 100 µM in the experiment on SF-268 CNS; 0.796 µM in the experiment on HT29 colon; 4.83 µM in the experiment on KM12 colon; greater than 100 µM in the experiment with OVCAR-4 ovarian; 0.602 µM in the experiment on SF-539 CNS; greater than 34.6 µM in the experiment with NCI-H23 lung. Besides, the results for the TGI in the experiment on ACHN renal and with HCC-2998 colon were greater than 100 µM and 1.59 µM, respectively.

Consider `NC1=NC(c2ccc(F)cc2)C2=C(N1)c1ccc3ccccc3c1OCC2` (configuration not stated), for which the GI50 in the experiment on SF-268 CNS is 18.2 µM; in the experiment with HT29 colon, 4.96 µM; in the experiment with KM12 colon, 4.45 µM; with OVCAR-4 ovarian, greater than 100 µM; with SF-539 CNS, 0.343 µM; with BT-549 breast it was 33.6 µM. The GI50 with NCI-H23 lung is 50.7 µM; in the experiment on ACHN renal, 29.7 µM. For the same compound, the TGI in the experiment on SF-268 CNS was greater than 100 µM; in the experiment on HT29 colon it was greater than 100 µM; in the experiment on KM12 colon, greater than 100 µM; with OVCAR-4 ovarian, greater than 100 µM; with SF-539 CNS, 2.45 µM; with BT-549 breast, greater than 100 µM. Also, the TGI with NCI-H23 lung and in the experiment with ACHN renal was greater than 100 µM each time.

On to `COC(=O)C1=Cc2c(cc(OC)c(OC)c2OC)[C@H](c2ccc(OC)c(OC)c2OC)C1C(=O)OC` (some centres not stated), for which the TGI in the experiment on SF-268 CNS, in the experiment on HT29 colon, in the experiment with KM12 colon, with OVCAR-4 ovarian, in the experiment on SF-539 CNS and in the experiment with NCI-H23 lung was greater than 100 µM in each case. In addition, the TGI in the experiment with ACHN renal and in the experiment on HCC-2998 colon was greater than 100 µM throughout.

For the compound `Nc1nc(SCCC/C=C/I)nc2c1ncn2C1OC(CO)C(O)C1O` (configuration not stated), the TGI in the experiment on SF-268 CNS, in the experiment on HT29 colon, in the experiment on KM12 colon, with OVCAR-4 ovarian, in the experiment on SF-539 CNS and in the experiment with NCI-H23 lung was greater than 202 µM in each case. Further, the TGI with ACHN renal is greater than 202 µM.

Take `CNC(=O)OCc1[nH]ccc2c(C)c3nc4ccc(OC)cc4c3cc12`: the TGI was greater than 100 µM in the experiment on SF-268 CNS; greater than 100 µM with HT29 colon; greater than 23.9 µM in the experiment with KM12 colon; 66.1 µM in the experiment on OVCAR-4 ovarian; greater than 31.8 µM in the experiment with SF-539 CNS; greater than 22.2 µM in the experiment with NCI-H23 lung. The TGI with ACHN renal was 18 µM; in the experiment on HCC-2998 colon it was greater than 53.5 µM.
